From patent US6410580B1, “Sulfonylamino derivatives which inhibit matrix-degrading metalloproteinases” (Novartis AG, priority 2000, dated 2002)

Structure (SMILES)	melting point
CN1C(=O)N(CC[C@@H](NS(=O)(=O)c2ccc(-c3ccc(Cl)cc3)cc2)C(=O)NO)C(=O)C1(C)C [Example 38, (2R)-(4′-Chlorobiphenyl-4-sulfonylamino)-4-(3,4,4-trimethyl-2,5-dioxoimidazolidin-1-yl)-butyric Acid Hydroxyamide]	117 to 120 °C
O=C(O)[C@@H](CCCN1C(=O)c2ccccc2C1=O)NS(=O)(=O)c1ccc(-c2ccc(Cl)cc2)cc1 [Example 1, (2R)-(4′-Chlorobiphenyl-4-sulfonylamino)-5-(1,3-dioxo-1,3-dihydroisoindol-2-yl)pentanoic Acid]	179 to 181 °C
Cn1c(=O)n(CCCCC(NS(=O)(=O)c2ccc(-c3ccc(Cl)cc3)cc2)C(=O)O)c(=O)c2ccccc21 [Example 31, (2R,S)-(4′-Chlorobiphenyl-4-sulfonylamino)-6-(1,2,3,4-tetrahydro-1-methyl-2,4-dioxoquinazolin-3-yl)hexanoic Acid]	208 to 210 °C
Cn1c(=O)n(CCC[C@@H](NS(=O)(=O)c2ccc(-c3ccc(Cl)cc3)cc2)C(=O)NO)c(=O)c2ccccc21 [Example 19, (2R)-(4′-Chlorobiphenyl-4-sulfonylamino)-5-(1,2,3,4-tetrahydro-1-methyl-2,4-dioxoquinazolin-3-yl)pentanoic Acid Hydroxyamide]	235 °C
Cn1c(=O)n(CC(NS(=O)(=O)c2ccc(-c3ccc(Cl)cc3)cc2)C(=O)O)c(=O)c2ccccc21 [Example 40, (2R,S)-(4′-Chlorobiphenyl-4-sulfonylamino)-3-(1,2,3,4-tetrahydro-1-methyl-2,4-dioxoquinazolin-3-yl)propanoic Acid]	218 °C (dec.)
O=C(NO)[C@@H](CCCN1C(=O)c2ccccc2C1=O)NS(=O)(=O)c1ccc(-c2ccc(Cl)cc2)cc1 [Example 2, (2R)-(4′-Chiorobiphenyl4-sulfonylamino)-5-(1,3-dioxo-1,3-dihydroisoindol-2-yl)pentanoic Acid Hydroxyamide]	204 to 206 °C (dec.)
O=C(O)[C@@H](CCCN1C(=O)c2ccccc2S1(=O)=O)NS(=O)(=O)c1ccc(-c2ccc(Cl)cc2)cc1 [Example 3, (2R)-(4′-Chlorobiphenyl-4-sulfonylamino)-5-(1,1,3-trioxo-2,3-dihydrobenzoisothiazol-2-yl)pentanoic Acid]	177 to 179 °C
O=C(O)[C@@H](CCN1C(=O)[C@@H]2Cc3ccccc3CN2C1=O)NS(=O)(=O)c1ccc(-c2ccc(Cl)cc2)cc1 [Example 36, (2R)-(4′-Chlorobiphenyl-4-sulfonylamino)-4-[(1,3-dioxo-1,5,10, (10aS)-tetrahydroimidazo-[1,5-b]isoquinolin-2-yl)]butyric Acid]	70 °C
Cn1c(=O)n(CCC[C@@H](NS(=O)(=O)c2ccc(-c3ccccc3)cc2)C(=O)NO)c(=O)c2ccccc21 [Example 20, (2R)-(4-Biphenylsulfonylamino)-5-(1,2,3,4-tetrahydro-1-methyl-2,4-dioxoquinazolin-3-yl)pentanoic Acid Hydroxyamide]	202 to 203 °C
O=C(O)[C@@H](CC(=O)N1CCOCC1)NS(=O)(=O)c1ccc(-c2ccc(Cl)cc2)cc1 [Example 43, (2R)-(4′-Chlorobiphenyl-4-sulfonylamino)-4-morpholin-4-yl-4-oxobutyric Acid]	144 to 146 °C
Cc1ccc(S(=O)(=O)NCCC[C@@H](NS(=O)(=O)c2ccc(-c3ccc(Cl)cc3)cc2)C(=O)O)cc1 [Example 7, (2R)-(4′-Chlorobiphenyl-4-sulfonylamino)-5-(4-methylbenzenesulfonylamino)pentanoic Acid]	62 °C
CC1(C)NC(=O)N(CCCCC(NS(=O)(=O)c2ccc(-c3ccc(Cl)cc3)cc2)C(=O)O)C1=O [Example 32, (2R,S)-(4′-Chlorobiphenyl-4-sulfonylamino)-6-(4,4-dimethyl-2,5-dioxoimidazolidin-1-yl)-hexanoic Acid]	78 to 80 °C
Cn1c(=O)n(CCC[C@@H](NS(=O)(=O)c2ccc(-c3ccc(Cl)cc3)cc2)C(=O)O)c(=O)c2ccccc21 [Example 4, (2R)-(4′-Chlorobiphenyl-4-sulfonylamino)-5-(1,2,3,4-tetrahydro-1-methyl-2,4-dioxoquinazolin-3-yl)pentanoic Acid]	188 to 191 °C
O=C(O)[C@@H](CC(=O)N1CCOCC1)NS(=O)(=O)c1ccc(Oc2ccccc2)cc1 [Example 42, (2R)-(4-Phenyloxybenzenesulfonylamino)-4-morpholin-4-yl-4-oxobutyric Acid]	147 to 149 °C
O=C(NO)[C@@H](CC(=O)N1CCOCC1)NS(=O)(=O)c1ccc(-c2ccc(Cl)cc2)cc1 [Example 45, (2R)-(4′-Chlorobiphenyl-4-sulfonylamino)-4-morpholin-4-yI-4-oxobutyric Acid Hydroxyamide]	139 to 141 °C
O=C(NO)[C@@H](CCCN1C(=O)c2ccccc2S1(=O)=O)NS(=O)(=O)c1ccc(-c2ccc(Cl)cc2)cc1 [Example 18, (2R)-(4′-Chlorobiphenyl-4-sulfonylamino)-5-(1,1,3-trioxo-2,3-dihydrobenzoisothiazol-2-yl)pentanoic Acid Hydroxyamide]	200 to 205 °C (dec.)
O=C(NO)[C@@H](CC(=O)N1CCOCC1)NS(=O)(=O)c1ccc(Oc2ccccc2)cc1 [Example 44, (2R)-(4-Phenyloxybenzenesulfonylamino)-4-morpholin-4-yl-4-oxobutyric Acid Hydroxyamide]	161 to 163 °C
CN1C(=O)N(CC(NS(=O)(=O)c2ccc(-c3ccc(Cl)cc3)cc2)C(=O)O)C(=O)C1(C)C [Example 39, (2R,S)-(4′-Chlorobiphenyl-4-sulfonylamino)-3-(3,4,4-trimethyl-1,2,5-dioxoimidazolidin-1-yl)propanoic Acid]	198 to 201 °C
CN1C(=O)N(CC[C@@H](NS(=O)(=O)c2ccc(-c3ccc(Cl)cc3)cc2)C(=O)O)C(=O)C1(C)C [Example 35, (2R)-(4′-Chlorobiphenyl-4-sulfonylamino)-4-(3,4,4-trimethyl-2,5-dioxoimidazolidin-1-yl)-butyric Acid]	43 °C
Cn1c(=O)n(CCC[C@@H](NS(=O)(=O)c2ccc(-c3ccccc3)cc2)C(=O)O)c(=O)c2ccccc21 [Example 5, (2R)-(4-Biphenylsulfonylamino)-5-(1,2,3,4-tetrahydro-1-methyl-2,4-dioxoquinazolin-3-yl)pentanoic Acid]	222 to 224 °C
